Columns and labels:
[1] = biological target: Dual specificity testis-specific protein kinase 1 (Homo sapiens) (UniProt Q15569); settings: Compound concentration 100.0 nM
[2] = biological target: Serine/threonine-protein kinase mTOR (Homo sapiens) (UniProt P42345); settings: Compound concentration 100.0 nM
[3] = biological target: BDNF/NT-3 growth factors receptor (Homo sapiens) (UniProt Q16620); settings: Compound concentration 100.0 nM
[4] = test system: Receptor-type tyrosine-protein kinase FLT3 (Homo sapiens), P36888 [R834Q]; settings: Compound concentration 100.0 nM
[5] = biological target: Wee1-like protein kinase 2 (Homo sapiens) (UniProt P0C1S8); settings: Compound concentration 100.0 nM
[6] = biological target: Testis-specific serine/threonine-protein kinase 1 (Homo sapiens) (UniProt Q9BXA7); settings: Compound concentration 100.0 nM
[7] = biological target: Uncharacterized serine/threonine-protein kinase SBK3 (Homo sapiens) (UniProt P0C264); settings: Compound concentration 100.0 nM
[8] = test system: Proto-oncogene tyrosine-protein kinase receptor Ret (Homo sapiens), P07949 [M918T]; settings: Compound concentration 100.0 nM
[9] = biological target: Phosphatidylinositol 4-phosphate 5-kinase type-1 gamma (Homo sapiens) (UniProt O60331); settings: Compound concentration 100.0 nM
[10] = biological target: Mitogen-activated protein kinase kinase kinase 15 (Homo sapiens) (UniProt Q6ZN16); settings: Compound concentration 100.0 nM
[11] = biological target: Mitogen-activated protein kinase kinase kinase 11 (Homo sapiens) (UniProt Q16584); settings: Compound concentration 100.0 nM
[12] = biological target: cAMP-dependent protein kinase catalytic subunit alpha (Homo sapiens) (UniProt P17612); settings: Compound concentration 100.0 nM
[13] = biological target: Ephrin type-A receptor 8 (Homo sapiens) (UniProt P29322); settings: Compound concentration 100.0 nM
[14] = biological target: Serine/threonine-protein kinase 32C (Homo sapiens) (UniProt Q86UX6); settings: Compound concentration 100.0 nM
[15] = biological target: Tyrosine-protein kinase ZAP-70 (Homo sapiens) (UniProt P43403); settings: Compound concentration 100.0 nM
[16] = test system: Epidermal growth factor receptor (Homo sapiens), P00533 [G719S]; settings: Compound concentration 100.0 nM
[17] = biological target: Interleukin-1 receptor-associated kinase 3 (Homo sapiens) (UniProt Q9Y616); settings: Compound concentration 100.0 nM
[18] = biological target: T1, 5-hydroxytryptamine receptor 2C (Homo sapiens) (UniProt P28335); settings: Compound concentration 10.0 uM
T1 sequence (whole entry): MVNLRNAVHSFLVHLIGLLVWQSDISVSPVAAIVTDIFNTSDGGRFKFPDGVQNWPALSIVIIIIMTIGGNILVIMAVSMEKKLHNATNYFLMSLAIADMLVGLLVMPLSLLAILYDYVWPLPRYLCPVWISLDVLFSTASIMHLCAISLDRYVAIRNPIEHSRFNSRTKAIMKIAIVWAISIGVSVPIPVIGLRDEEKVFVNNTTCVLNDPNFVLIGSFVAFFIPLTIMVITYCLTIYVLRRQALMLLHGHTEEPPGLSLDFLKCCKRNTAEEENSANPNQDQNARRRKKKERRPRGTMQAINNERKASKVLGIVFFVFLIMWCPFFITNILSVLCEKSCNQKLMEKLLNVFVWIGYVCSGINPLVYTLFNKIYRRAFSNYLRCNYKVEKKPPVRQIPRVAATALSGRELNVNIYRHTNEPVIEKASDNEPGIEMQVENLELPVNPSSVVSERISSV

[19] = test system: Tyrosine-protein kinase ABL1 (Homo sapiens), P00519 [F317I]; settings: Compound concentration 100.0 nM
[20] = biological target: Mitogen-activated protein kinase kinase kinase 7 (Homo sapiens) (UniProt O43318); settings: Compound concentration 100.0 nM
[21] = biological target: Microtubule-associated serine/threonine-protein kinase 1 (Homo sapiens) (UniProt Q9Y2H9); settings: Compound concentration 100.0 nM
[22] = biological target: T2, Alpha-2B adrenergic receptor (Homo sapiens) (UniProt P18089); settings: Compound concentration 10.0 uM
T2 sequence (whole entry): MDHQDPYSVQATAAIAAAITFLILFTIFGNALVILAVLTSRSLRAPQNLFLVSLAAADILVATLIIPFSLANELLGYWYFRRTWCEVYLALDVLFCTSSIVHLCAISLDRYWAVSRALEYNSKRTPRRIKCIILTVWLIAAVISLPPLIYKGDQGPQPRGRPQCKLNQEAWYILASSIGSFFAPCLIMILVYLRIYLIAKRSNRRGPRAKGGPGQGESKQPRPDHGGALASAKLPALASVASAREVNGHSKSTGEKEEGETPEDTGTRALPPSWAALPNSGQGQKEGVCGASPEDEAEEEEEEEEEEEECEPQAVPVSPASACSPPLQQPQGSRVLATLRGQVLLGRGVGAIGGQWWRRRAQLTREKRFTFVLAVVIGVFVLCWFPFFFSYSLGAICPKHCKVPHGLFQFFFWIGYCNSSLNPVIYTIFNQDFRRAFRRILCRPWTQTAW

[23] = biological target: Serine/threonine-protein kinase TAO2 (Homo sapiens) (UniProt Q9UL54); settings: Compound concentration 100.0 nM
[24] = biological target: Ribosomal protein S6 kinase alpha-4 (Homo sapiens) (UniProt O75676); settings: Compound concentration 100.0 nM
[25] = biological target: Death-associated protein kinase 3 (Homo sapiens) (UniProt O43293); settings: Compound concentration 100.0 nM
[26] = biological target: Fibroblast growth factor receptor 1 (Homo sapiens) (UniProt P11362); settings: Compound concentration 100.0 nM
[27] = biological target: MAP kinase-interacting serine/threonine-protein kinase 2 (Homo sapiens) (UniProt Q9HBH9); settings: Compound concentration 100.0 nM
[28] = biological target: Tyrosine-protein kinase ABL2 (Homo sapiens) (UniProt P42684); settings: Compound concentration 100.0 nM
[29] = biological target: Receptor-interacting serine/threonine-protein kinase 2 (Homo sapiens) (UniProt O43353); settings: Compound concentration 100.0 nM
[30] = biological target: Proto-oncogene tyrosine-protein kinase Src (Homo sapiens) (UniProt P12931); settings: Compound concentration 100.0 nM
[31] = biological target: Mitogen-activated protein kinase kinase kinase 4 (Homo sapiens) (UniProt Q9Y6R4); settings: Compound concentration 100.0 nM
[32] = test system: Tyrosine-protein kinase ABL1 (Homo sapiens), P00519 [Y253F]; settings: Compound concentration 100.0 nM

Ribosomal protein S6 kinase alpha-4 (Homo sapiens), sequence (O75676 whole entry, looked up): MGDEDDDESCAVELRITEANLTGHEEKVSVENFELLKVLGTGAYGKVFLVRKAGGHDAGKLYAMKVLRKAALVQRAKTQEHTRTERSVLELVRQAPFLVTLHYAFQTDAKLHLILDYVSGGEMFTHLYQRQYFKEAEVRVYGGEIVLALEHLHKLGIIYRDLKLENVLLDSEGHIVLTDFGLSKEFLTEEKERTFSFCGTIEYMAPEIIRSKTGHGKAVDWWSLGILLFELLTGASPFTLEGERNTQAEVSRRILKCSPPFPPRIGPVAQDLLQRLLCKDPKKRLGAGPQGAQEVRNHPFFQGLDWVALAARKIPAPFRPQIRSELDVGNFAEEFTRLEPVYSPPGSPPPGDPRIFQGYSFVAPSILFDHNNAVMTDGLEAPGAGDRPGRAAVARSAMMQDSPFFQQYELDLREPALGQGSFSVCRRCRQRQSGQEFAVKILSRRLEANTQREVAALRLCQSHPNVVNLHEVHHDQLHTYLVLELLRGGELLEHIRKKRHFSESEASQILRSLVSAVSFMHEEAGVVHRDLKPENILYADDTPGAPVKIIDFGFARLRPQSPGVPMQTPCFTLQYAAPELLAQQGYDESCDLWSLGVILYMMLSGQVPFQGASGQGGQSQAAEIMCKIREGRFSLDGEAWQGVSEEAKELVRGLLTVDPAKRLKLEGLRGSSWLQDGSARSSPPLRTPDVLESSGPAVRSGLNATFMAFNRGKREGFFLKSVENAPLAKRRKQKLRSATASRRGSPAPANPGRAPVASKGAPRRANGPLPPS
Mitogen-activated protein kinase kinase kinase 4 (Homo sapiens), sequence (Q9Y6R4 whole entry): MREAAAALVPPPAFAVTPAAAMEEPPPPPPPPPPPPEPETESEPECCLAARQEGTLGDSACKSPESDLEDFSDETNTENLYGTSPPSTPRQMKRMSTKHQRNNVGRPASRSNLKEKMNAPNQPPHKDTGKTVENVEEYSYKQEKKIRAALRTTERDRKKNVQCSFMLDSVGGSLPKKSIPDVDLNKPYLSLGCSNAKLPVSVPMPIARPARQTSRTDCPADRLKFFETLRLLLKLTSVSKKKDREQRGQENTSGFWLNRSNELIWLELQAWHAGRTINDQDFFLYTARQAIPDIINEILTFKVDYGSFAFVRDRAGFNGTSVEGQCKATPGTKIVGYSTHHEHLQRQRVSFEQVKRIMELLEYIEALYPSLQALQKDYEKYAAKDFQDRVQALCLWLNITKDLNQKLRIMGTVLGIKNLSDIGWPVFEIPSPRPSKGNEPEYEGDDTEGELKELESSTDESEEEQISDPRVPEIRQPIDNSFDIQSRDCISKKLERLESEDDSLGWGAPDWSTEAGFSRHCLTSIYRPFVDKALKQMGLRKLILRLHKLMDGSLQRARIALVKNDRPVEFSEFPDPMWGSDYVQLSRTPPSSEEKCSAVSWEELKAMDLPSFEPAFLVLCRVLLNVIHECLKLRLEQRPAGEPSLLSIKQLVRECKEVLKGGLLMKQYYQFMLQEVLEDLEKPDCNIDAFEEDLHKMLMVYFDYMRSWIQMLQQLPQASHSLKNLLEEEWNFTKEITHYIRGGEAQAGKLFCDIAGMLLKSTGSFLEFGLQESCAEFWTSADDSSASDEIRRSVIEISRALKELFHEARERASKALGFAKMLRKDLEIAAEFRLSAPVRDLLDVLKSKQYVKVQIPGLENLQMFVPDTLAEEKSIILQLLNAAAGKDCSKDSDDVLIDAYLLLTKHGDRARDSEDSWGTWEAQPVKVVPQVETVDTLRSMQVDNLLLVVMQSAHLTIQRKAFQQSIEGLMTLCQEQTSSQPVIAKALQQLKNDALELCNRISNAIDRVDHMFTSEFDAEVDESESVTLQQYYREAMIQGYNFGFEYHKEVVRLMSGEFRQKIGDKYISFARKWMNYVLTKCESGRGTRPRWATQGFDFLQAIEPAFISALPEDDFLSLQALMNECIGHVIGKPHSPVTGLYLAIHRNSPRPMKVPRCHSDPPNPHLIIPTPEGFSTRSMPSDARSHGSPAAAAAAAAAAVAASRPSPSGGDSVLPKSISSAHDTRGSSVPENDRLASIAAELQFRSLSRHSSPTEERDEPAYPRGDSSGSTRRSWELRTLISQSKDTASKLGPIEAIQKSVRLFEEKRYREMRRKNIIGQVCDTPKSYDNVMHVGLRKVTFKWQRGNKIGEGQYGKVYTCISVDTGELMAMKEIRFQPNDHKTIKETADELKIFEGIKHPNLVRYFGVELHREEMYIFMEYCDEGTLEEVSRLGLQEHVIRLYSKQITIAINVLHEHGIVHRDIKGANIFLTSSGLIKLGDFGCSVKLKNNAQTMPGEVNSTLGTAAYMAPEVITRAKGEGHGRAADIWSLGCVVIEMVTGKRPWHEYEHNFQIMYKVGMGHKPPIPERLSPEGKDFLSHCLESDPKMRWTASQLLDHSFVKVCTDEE
BDNF/NT-3 growth factors receptor (Homo sapiens), sequence (Q16620 32-822 limits assumed): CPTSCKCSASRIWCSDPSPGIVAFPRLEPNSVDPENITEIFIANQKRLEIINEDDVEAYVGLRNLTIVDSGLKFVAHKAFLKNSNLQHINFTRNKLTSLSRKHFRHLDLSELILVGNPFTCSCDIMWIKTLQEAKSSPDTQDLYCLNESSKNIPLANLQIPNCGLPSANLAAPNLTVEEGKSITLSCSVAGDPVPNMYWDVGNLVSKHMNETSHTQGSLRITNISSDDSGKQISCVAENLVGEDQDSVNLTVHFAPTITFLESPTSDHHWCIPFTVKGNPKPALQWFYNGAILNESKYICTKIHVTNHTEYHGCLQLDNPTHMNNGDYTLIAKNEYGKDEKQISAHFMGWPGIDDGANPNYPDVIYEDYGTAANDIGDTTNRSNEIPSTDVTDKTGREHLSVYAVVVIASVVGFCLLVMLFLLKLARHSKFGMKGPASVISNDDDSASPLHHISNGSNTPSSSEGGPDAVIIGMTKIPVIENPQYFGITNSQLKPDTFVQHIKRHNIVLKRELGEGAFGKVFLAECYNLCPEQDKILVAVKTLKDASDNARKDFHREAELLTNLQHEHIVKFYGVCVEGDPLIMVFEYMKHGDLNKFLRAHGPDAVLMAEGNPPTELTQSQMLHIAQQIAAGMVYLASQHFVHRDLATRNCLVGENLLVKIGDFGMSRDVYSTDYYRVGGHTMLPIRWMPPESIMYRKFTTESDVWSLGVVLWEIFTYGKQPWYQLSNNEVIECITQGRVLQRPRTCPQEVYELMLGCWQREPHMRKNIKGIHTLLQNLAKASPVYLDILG
Interleukin-1 receptor-associated kinase 3 (Homo sapiens), sequence (Q9Y616 whole entry): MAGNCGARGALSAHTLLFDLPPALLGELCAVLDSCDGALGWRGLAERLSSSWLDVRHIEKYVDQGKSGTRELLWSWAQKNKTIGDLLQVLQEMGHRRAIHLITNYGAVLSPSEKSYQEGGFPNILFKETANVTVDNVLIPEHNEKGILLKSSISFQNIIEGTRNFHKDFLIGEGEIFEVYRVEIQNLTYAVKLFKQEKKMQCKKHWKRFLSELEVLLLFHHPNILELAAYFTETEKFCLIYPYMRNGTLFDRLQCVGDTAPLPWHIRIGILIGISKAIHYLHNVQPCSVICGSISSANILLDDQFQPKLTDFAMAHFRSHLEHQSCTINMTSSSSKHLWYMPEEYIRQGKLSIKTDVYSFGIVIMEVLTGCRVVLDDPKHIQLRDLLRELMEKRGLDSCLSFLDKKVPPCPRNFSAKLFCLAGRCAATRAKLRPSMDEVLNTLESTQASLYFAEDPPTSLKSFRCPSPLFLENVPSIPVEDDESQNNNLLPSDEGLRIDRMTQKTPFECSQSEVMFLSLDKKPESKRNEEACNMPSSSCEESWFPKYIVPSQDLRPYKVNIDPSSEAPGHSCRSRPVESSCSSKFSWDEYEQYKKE
Dual specificity testis-specific protein kinase 1 (Homo sapiens), sequence (Q15569 whole entry, looked up): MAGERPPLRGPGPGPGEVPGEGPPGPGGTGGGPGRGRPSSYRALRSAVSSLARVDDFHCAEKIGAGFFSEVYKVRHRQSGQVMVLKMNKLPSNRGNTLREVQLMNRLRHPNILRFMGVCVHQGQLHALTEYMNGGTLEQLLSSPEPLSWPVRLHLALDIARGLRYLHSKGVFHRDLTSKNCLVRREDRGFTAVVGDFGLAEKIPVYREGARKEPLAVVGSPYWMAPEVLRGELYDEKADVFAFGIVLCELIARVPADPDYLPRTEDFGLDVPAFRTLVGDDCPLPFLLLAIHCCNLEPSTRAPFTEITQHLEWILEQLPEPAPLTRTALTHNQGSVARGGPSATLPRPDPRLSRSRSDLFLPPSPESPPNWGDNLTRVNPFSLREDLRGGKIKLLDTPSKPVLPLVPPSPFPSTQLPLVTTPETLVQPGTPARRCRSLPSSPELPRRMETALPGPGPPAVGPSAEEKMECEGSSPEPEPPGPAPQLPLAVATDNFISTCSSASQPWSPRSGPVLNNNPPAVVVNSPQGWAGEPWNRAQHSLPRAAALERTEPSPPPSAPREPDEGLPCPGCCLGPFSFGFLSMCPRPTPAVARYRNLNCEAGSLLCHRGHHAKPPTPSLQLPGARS
Testis-specific serine/threonine-protein kinase 1 (Homo sapiens), sequence (Q9BXA7 whole entry): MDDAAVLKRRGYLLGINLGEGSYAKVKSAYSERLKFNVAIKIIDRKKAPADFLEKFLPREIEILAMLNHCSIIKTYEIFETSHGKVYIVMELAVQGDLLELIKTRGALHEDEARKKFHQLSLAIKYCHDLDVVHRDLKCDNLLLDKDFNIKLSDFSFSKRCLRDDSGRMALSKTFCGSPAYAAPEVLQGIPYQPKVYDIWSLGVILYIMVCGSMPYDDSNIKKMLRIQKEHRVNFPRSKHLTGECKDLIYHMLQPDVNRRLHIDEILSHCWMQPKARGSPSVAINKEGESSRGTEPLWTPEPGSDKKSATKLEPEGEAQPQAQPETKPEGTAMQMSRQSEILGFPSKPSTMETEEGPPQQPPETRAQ

CC(C)CC(=O)N1CCc2nc(-c3ccc(Br)cc3)nc(N(C)Cc3ccccc3)c2C1 [THPP-1-NC]
inactive: residual activity [1] 100% | residual activity [2] 89% | residual activity [3] 100% | residual activity [4] 65% | residual activity [5] 100% | residual activity [6] 99% | residual activity [7] 100% | residual activity [8] 100% | residual activity [9] 85% | residual activity [10] 100% | residual activity [11] 100% | residual activity [12] 89% | residual activity [13] 100% | residual activity [14] 98% | residual activity [15] 91% | residual activity [16] 100% | residual activity [17] 100% | inhibition [18] -6.28% | residual activity [19] 100% | residual activity [20] 78% | residual activity [21] 100% | inhibition [22] 29% | residual activity [23] 97% | residual activity [24] 74% | residual activity [25] 100% | residual activity [26] 100% | residual activity [27] 73% | residual activity [28] 100% | residual activity [29] 100% | residual activity [30] 100% | residual activity [31] 100% | residual activity [32] 97%

COCCOc1nc(-c2ccc(Cl)nc2)nc2c1CN(C(=O)c1ncn3ccccc13)CC2 [THPP-1]
inactive: residual activity [1] 100% | residual activity [2] 97% | residual activity [3] 100% | residual activity [4] 65% | residual activity [5] 100% | residual activity [6] 100% | residual activity [7] 100% | residual activity [8] 90% | residual activity [9] 67% | residual activity [10] 100% | residual activity [11] 100% | residual activity [12] 82% | residual activity [13] 100% | residual activity [14] 100% | residual activity [15] 95% | residual activity [16] 97% | residual activity [17] 100% | inhibition [18] 13.3% | residual activity [19] 100% | residual activity [20] 93% | residual activity [21] 100% | inhibition [22] -2.32% | residual activity [23] 99% | residual activity [24] 86% | residual activity [25] 100% | residual activity [26] 100% | residual activity [27] 100% | residual activity [28] 100% | residual activity [29] 100% | residual activity [30] 95% | residual activity [31] 100% | residual activity [32] 93%

— ChEMBL document CHEMBL4507293 (2021)
